The values below are quoted from earlier work in patent US8703753B2, “Use of tellurium compounds for the treatment of actinic keratosis” (Biomas Ltd., priority 2005, dated 2014).

SMILES strings stand for the structures. Like-named read-outs stand apart in the source and are kept apart here.

For data set [1] the following is noted: rats, intravenous and intramuscular administration.
The subject of data set [2] is interferon (IFN). The settings on record: mice.
In data set [3] the test system is interferon (IFN). The note with it: humans.

Turning to `Cl[TeH]1(Cl)(Cl)OCCO1.N` [AS101, ammonium trichloro(dioxyethylene-O,O′)tellurate], the “LD50 relative to the immunologically effective dose” value in data set [1] is on record as 500-1000 folds. Moreover, the “activation of interferon (IFN)” value in the data set with interferon (IFN) [2] and in the data set on interferon (IFN) [3] was “potent activator” in each case. The “effect on IL-10 at the m-RNA level” value in the data set on IL-10 is reported as “inhibit IL-10”.
